Source: the NIST ThermoML archive (doi:10.1021/je800783a)

Test: xn = mol fraction of the nth substance listed
Settings: 101 kPa, Liquid, Vibrating tube method

CCCn1cc[n+](C)c1.N[C@@H](CCC(=O)O)C(=O)[O-] + O
Settings	mass density [kg/m3]
283.15 K, x1 = 0.039	1090.4
283.15 K, x1 = 0.0455	1100.76
283.15 K, x1 = 0.0497	1106.9
283.15 K, x1 = 0.0683	1129.12
283.15 K, x1 = 0.0783	1139.04
283.15 K, x1 = 0.0894	1147.7
283.15 K, x1 = 0.0975	1153.37
283.15 K, x1 = 0.1235	1169.78
283.15 K, x1 = 0.1451	1178.22
283.15 K, x1 = 0.1925	1191.85
283.15 K, x1 = 0.239	1201.76
283.15 K, x1 = 0.2888	1208.1
283.15 K, x1 = 0.3294	1211.85
283.15 K, x1 = 0.3767	1215
283.15 K, x1 = 0.4265	1218.6
283.15 K, x1 = 0.4713	1220.69
283.15 K, x1 = 0.5112	1221.72
283.15 K, x1 = 0.5427	1223.07
288.15 K, x1 = 0.039	1088.42
288.15 K, x1 = 0.0455	1098.39
288.15 K, x1 = 0.0497	1104.45
288.15 K, x1 = 0.0683	1126.36
288.15 K, x1 = 0.0783	1136.21
288.15 K, x1 = 0.0894	1144.79
288.15 K, x1 = 0.0975	1150.37
288.15 K, x1 = 0.1235	1166.6
288.15 K, x1 = 0.1451	1175.07
288.15 K, x1 = 0.1925	1188.67
288.15 K, x1 = 0.239	1198.15
288.15 K, x1 = 0.2888	1204.86
288.15 K, x1 = 0.3294	1208.49
288.15 K, x1 = 0.3767	1211.68
288.15 K, x1 = 0.4265	1214.72
288.15 K, x1 = 0.4713	1217.33
288.15 K, x1 = 0.5112	1218.47
288.15 K, x1 = 0.5427	1220.26
293.15 K, x1 = 0.039	1086.11
293.15 K, x1 = 0.0455	1095.92
293.15 K, x1 = 0.0497	1101.92
293.15 K, x1 = 0.0683	1123.56
293.15 K, x1 = 0.0783	1133.31
293.15 K, x1 = 0.0894	1141.8
293.15 K, x1 = 0.0975	1147.34
293.15 K, x1 = 0.1235	1163.35
293.15 K, x1 = 0.1451	1172.01
293.15 K, x1 = 0.1925	1185.47
293.15 K, x1 = 0.239	1194.83
293.15 K, x1 = 0.2888	1201.46
293.15 K, x1 = 0.3294	1205.08
293.15 K, x1 = 0.3767	1208.49
293.15 K, x1 = 0.4265	1211.93
293.15 K, x1 = 0.4713	1213.9
293.15 K, x1 = 0.5112	1215.18
293.15 K, x1 = 0.5427	1216.93
298.15 K, x1 = 0.039	1083.72
298.15 K, x1 = 0.0455	1093.38
298.15 K, x1 = 0.0497	1099.3
298.15 K, x1 = 0.0683	1120.71
298.15 K, x1 = 0.0783	1130.35
298.15 K, x1 = 0.0894	1138.78
298.15 K, x1 = 0.0975	1144.3
298.15 K, x1 = 0.1235	1160.15
298.15 K, x1 = 0.1451	1168.85
298.15 K, x1 = 0.1925	1182.21
298.15 K, x1 = 0.239	1191.61
298.15 K, x1 = 0.2888	1197.83
298.15 K, x1 = 0.3294	1201.85
298.15 K, x1 = 0.3767	1205.25
298.15 K, x1 = 0.4265	1209.67
298.15 K, x1 = 0.4713	1210.64
298.15 K, x1 = 0.5112	1211.78
298.15 K, x1 = 0.5427	1213.92
303.15 K, x1 = 0.039	1081.22
303.15 K, x1 = 0.0455	1090.77
303.15 K, x1 = 0.0497	1096.64
303.15 K, x1 = 0.0683	1117.81
303.15 K, x1 = 0.0783	1127.36
303.15 K, x1 = 0.0894	1135.72
303.15 K, x1 = 0.0975	1141.18
303.15 K, x1 = 0.1235	1156.96
303.15 K, x1 = 0.1451	1165.64
303.15 K, x1 = 0.1925	1178.9
303.15 K, x1 = 0.239	1188.36
303.15 K, x1 = 0.2888	1194.59
303.15 K, x1 = 0.3294	1198.55
303.15 K, x1 = 0.3767	1201.91
303.15 K, x1 = 0.4265	1206.45
303.15 K, x1 = 0.4713	1207.32
303.15 K, x1 = 0.5112	1208.42
303.15 K, x1 = 0.5427	1210.64
308.15 K, x1 = 0.039	1078.64
308.15 K, x1 = 0.0455	1088.06
308.15 K, x1 = 0.0497	1093.89
308.15 K, x1 = 0.0683	1114.86
308.15 K, x1 = 0.0783	1124.33
308.15 K, x1 = 0.0894	1132.63
308.15 K, x1 = 0.0975	1138.07
308.15 K, x1 = 0.1235	1153.81
308.15 K, x1 = 0.1451	1162.49
308.15 K, x1 = 0.1925	1175.73
308.15 K, x1 = 0.239	1185.05
308.15 K, x1 = 0.2888	1191.36
308.15 K, x1 = 0.3294	1195.3
308.15 K, x1 = 0.3767	1198.71
308.15 K, x1 = 0.4265	1203.15
308.15 K, x1 = 0.4713	1203.95
308.15 K, x1 = 0.5112	1205.15
308.15 K, x1 = 0.5427	1207.34
313.15 K, x1 = 0.039	1075.97
313.15 K, x1 = 0.0455	1085.27
313.15 K, x1 = 0.0497	1091.07
313.15 K, x1 = 0.0683	1111.85
313.15 K, x1 = 0.0783	1121.25
313.15 K, x1 = 0.0894	1129.5
313.15 K, x1 = 0.0975	1134.91
313.15 K, x1 = 0.1235	1150.57
313.15 K, x1 = 0.1451	1159.24
313.15 K, x1 = 0.1925	1172.52
313.15 K, x1 = 0.239	1181.78
313.15 K, x1 = 0.2888	1188.1
313.15 K, x1 = 0.3294	1192.09
313.15 K, x1 = 0.3767	1195.42
313.15 K, x1 = 0.4265	1199.74
313.15 K, x1 = 0.4713	1200.57
313.15 K, x1 = 0.5112	1201.78
313.15 K, x1 = 0.5427	1203.93
318.15 K, x1 = 0.039	1073.22
318.15 K, x1 = 0.0455	1082.41
318.15 K, x1 = 0.0497	1088.19
318.15 K, x1 = 0.0683	1108.8
318.15 K, x1 = 0.0783	1118.14
318.15 K, x1 = 0.0894	1126.34
318.15 K, x1 = 0.0975	1131.71
318.15 K, x1 = 0.1235	1147.32
318.15 K, x1 = 0.1451	1155.99
318.15 K, x1 = 0.1925	1169.27
318.15 K, x1 = 0.239	1178.48
318.15 K, x1 = 0.2888	1184.82
318.15 K, x1 = 0.3294	1188.84
318.15 K, x1 = 0.3767	1192.17
318.15 K, x1 = 0.4265	1196.17
318.15 K, x1 = 0.4713	1197.03
318.15 K, x1 = 0.5112	1198.21
318.15 K, x1 = 0.5427	1200.61
323.15 K, x1 = 0.039	1070.37
323.15 K, x1 = 0.0455	1079.46
323.15 K, x1 = 0.0497	1085.24
323.15 K, x1 = 0.0683	1105.7
323.15 K, x1 = 0.0783	1114.98
323.15 K, x1 = 0.0894	1123.14
323.15 K, x1 = 0.0975	1128.49
323.15 K, x1 = 0.1235	1144.03
323.15 K, x1 = 0.1451	1152.7
323.15 K, x1 = 0.1925	1166
323.15 K, x1 = 0.239	1175.27
323.15 K, x1 = 0.2888	1181.51
323.15 K, x1 = 0.3294	1185.58
323.15 K, x1 = 0.3767	1188.94
323.15 K, x1 = 0.4265	1192.88
323.15 K, x1 = 0.4713	1193.63
323.15 K, x1 = 0.5112	1194.79
323.15 K, x1 = 0.5427	1197.22
328.15 K, x1 = 0.039	1067.43
328.15 K, x1 = 0.0455	1076.44
328.15 K, x1 = 0.0497	1082.22
328.15 K, x1 = 0.0683	1102.55
328.15 K, x1 = 0.0783	1111.78
328.15 K, x1 = 0.0894	1119.9
328.15 K, x1 = 0.0975	1125.24
328.15 K, x1 = 0.1235	1140.73
328.15 K, x1 = 0.1451	1149.4
328.15 K, x1 = 0.1925	1162.68
328.15 K, x1 = 0.239	1172
328.15 K, x1 = 0.2888	1178.21
328.15 K, x1 = 0.3294	1182.29
328.15 K, x1 = 0.3767	1185.67
328.15 K, x1 = 0.4265	1189.64
328.15 K, x1 = 0.4713	1190.41
328.15 K, x1 = 0.5112	1191.55
328.15 K, x1 = 0.5427	1193.66
333.15 K, x1 = 0.039	1064.43
333.15 K, x1 = 0.0455	1073.32
333.15 K, x1 = 0.0497	1079.13
333.15 K, x1 = 0.0683	1099.36
333.15 K, x1 = 0.0783	1108.54
333.15 K, x1 = 0.0894	1116.63
333.15 K, x1 = 0.0975	1121.94
333.15 K, x1 = 0.1235	1137.4
333.15 K, x1 = 0.1451	1146.06
333.15 K, x1 = 0.1925	1159.35
333.15 K, x1 = 0.239	1168.59
333.15 K, x1 = 0.2888	1174.99
333.15 K, x1 = 0.3294	1178.98
333.15 K, x1 = 0.3767	1182.34
333.15 K, x1 = 0.4265	1186.35
333.15 K, x1 = 0.4713	1187.18
333.15 K, x1 = 0.5112	1188.22
333.15 K, x1 = 0.5427	1190.35
338.15 K, x1 = 0.039	1061.36
338.15 K, x1 = 0.0455	1070.11
338.15 K, x1 = 0.0497	1075.98
338.15 K, x1 = 0.0683	1096.1
338.15 K, x1 = 0.0783	1105.26
338.15 K, x1 = 0.0894	1113.31
338.15 K, x1 = 0.0975	1118.6
338.15 K, x1 = 0.1235	1134.05
338.15 K, x1 = 0.1451	1142.71
338.15 K, x1 = 0.1925	1155.98
338.15 K, x1 = 0.239	1165.3
338.15 K, x1 = 0.2888	1171.72
338.15 K, x1 = 0.3294	1175.77
338.15 K, x1 = 0.3767	1179.04
338.15 K, x1 = 0.4265	1183.09
338.15 K, x1 = 0.4713	1183.94
338.15 K, x1 = 0.5112	1184.93
338.15 K, x1 = 0.5427	1187.07
